Test results as given in ChEMBL document CHEMBL1124665, “Is there a case for P-450 inhibitors in cancer treatment?” (J Med Chem, 1989).

Legend:
Aromatase [1] = target: T1, Aromatase (Homo sapiens, UniProt P11511); assay: In vitro inhibition of Cytochrome P450 19A1
T1 sequence (P11511 whole entry): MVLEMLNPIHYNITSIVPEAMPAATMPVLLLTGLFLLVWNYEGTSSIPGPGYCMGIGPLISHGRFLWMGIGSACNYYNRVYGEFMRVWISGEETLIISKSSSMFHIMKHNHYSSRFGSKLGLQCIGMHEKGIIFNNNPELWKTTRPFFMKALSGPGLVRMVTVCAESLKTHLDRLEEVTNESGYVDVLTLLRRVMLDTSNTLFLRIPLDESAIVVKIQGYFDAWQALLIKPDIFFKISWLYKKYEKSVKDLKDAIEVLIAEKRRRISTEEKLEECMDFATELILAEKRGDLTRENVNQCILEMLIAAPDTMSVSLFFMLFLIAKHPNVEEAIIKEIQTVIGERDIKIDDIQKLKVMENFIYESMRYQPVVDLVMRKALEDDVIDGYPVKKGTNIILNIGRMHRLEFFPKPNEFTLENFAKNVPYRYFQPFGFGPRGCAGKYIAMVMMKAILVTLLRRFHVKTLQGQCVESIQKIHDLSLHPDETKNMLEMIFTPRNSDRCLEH

Aromatase [2] = target: T1, Aromatase; assay: Effective dose for inhibition of extragonadal estrogen production in baboons; type: functional; conditions: papio hamadryas; target entry is the homologue from another species
Aromatase [3] = target: T1, Aromatase; assay: In vitro inactivation of human placental Cytochrome P450 19A1

Compound | Ki (Aromatase [1]) [µM] | ED50 (Aromatase [2]) [mg/kg] | kinact (Aromatase [3]) [s⁻¹]
C#CC[C@]12CCC(=O)C=C1CC[C@@H]1[C@@H]2CC[C@]2(C)C(=O)CC[C@@H]12 [PLOMESTANE] | 0.004 | 4 | 0.0011
C[C@]12C=CC(=O)C=C1CC[C@@H]1[C@@H]2CC[C@]2(C)OC(=O)CC[C@@H]12 [TESTOLACTONE] | 35 | – | 0.00036
CC12CCC3C(CCC4=C(O)C(=O)CCC43C)C1CCCC2=O (configuration not stated) | 0.0102 | – | 0.00041
